Source: ChEMBL document CHEMBL5149996, “Structure-Based Optimization and Discovery of M3258, a Specific Inhibitor of the Immunoproteasome Subunit LMP7 (β5i)” (J Med Chem, 2021)

Legend:
[1] = biological target: T1, Proteasome subunit beta type-8 (Homo sapiens, UniProt P28062); assay: Inhibition of 20S immunoproteasome beta-5i subunit in human PBMC using Ac-ANW-luciferin substrate preincubated for 2 hrs followed by substrate addition and measured after 30 mins by luminometric analysis; format: cell-based
T1 sequence (P28062 whole entry): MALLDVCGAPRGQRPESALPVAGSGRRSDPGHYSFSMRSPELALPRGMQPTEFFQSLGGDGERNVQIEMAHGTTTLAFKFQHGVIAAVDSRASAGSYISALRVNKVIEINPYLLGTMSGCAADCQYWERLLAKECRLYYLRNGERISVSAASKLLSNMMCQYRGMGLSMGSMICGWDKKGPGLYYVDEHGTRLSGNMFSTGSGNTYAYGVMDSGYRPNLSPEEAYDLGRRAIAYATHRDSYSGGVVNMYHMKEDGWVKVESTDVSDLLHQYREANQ

[2] = biological target: T2, Proteasome Macropain subunit MB1 (Homo sapiens, UniProt P28074); assay: Inhibition of 20S proteasome beta5 subunit in human A549 cells using Suc-LLVY-luciferin substrate preincubated for 2 hrs followed by substrate addition and measured after 30 mins by luminometric analysis; format: cell-based
T2 sequence (P28074 whole entry): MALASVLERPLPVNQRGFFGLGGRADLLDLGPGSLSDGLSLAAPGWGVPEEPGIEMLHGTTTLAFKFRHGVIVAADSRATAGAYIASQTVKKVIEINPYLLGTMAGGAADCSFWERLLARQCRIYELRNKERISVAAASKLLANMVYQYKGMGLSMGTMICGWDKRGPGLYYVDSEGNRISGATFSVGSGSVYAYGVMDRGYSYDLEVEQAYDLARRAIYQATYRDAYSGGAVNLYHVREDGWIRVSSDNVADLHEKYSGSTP

[3] = organism: Homo sapiens; assay: Selectivity ratio of IC50 for inhibition of 20S proteasome beta5 subunit in human A549 cells to IC50 for inhibition of 20S immunoproteasome beta-5i subunit in human PBMC; format: cell-based
[4] = biological target: T1, Proteasome subunit beta type-8; assay: Inhibition of human 20S immunoproteasome beta-5i subunit using Suc-LLVY-AMC as substrate preincubated for 2 hrs followed by substrate addition and measured after 1 hr by fluorescence intensity assay
[5] = biological target: T2, Proteasome Macropain subunit MB1; assay: Inhibition of human 20S proteasome beta5 subunit using Suc-LLVY-AMC as substrate preincubated for 2 hrs followed by substrate addition and measured after 1 hr by fluorescence intensity assay
[6] = organism: Homo sapiens; assay: Selectivity ratio of IC50 for inhibition of human 20S proteasome beta5 subunit to IC50 for inhibition of human 20S immunoproteasome beta-5i subunit
[7] = Intrinsic clearance in mouse liver microsomes measured per mg protein; format: ADME, Microsome; settings: read-out: CLH
[8] = Clearance in mouse hepatocytes measured per million of cells; format: ADME, cell-based, Hepatocyte; settings: read-out: CLH
[9] = Lipophilicity, log P of the compound; format: physicochemical; settings: octanol/water

| Compound | IC50 [1] | IC50 [2] | Ratio IC50 [3] | IC50 [4] | IC50 [5] | Ratio IC50 [6] | microsomal CLint [7] | hepatocyte CLint [8] | logP [9] |
| --- | --- | --- | --- | --- | --- | --- | --- | --- | --- |
| O=C(Cc1ncccn1)N[C@@H](Cc1coc2ccccc12)B(O)O | 15.5 nM | 204 nM | 13 | 2.3 nM | 230 nM | 101 | – | – | – |
| Cc1ccc(C[C@H](NC(=O)Cc2ccccc2)B(O)O)cc1 | 438 nM | 6290 nM | 14 | 91 nM | 6300 nM | 69 | – | – | – |
| Cc1cccc2c1OC[C@H]2C[C@H](NC(=O)Cc1ccccc1)B(O)O | 53 nM | 14000 nM | 262 | 3.1 nM | 7200 nM | 2330 | – | – | – |
| O=C(N[C@@H](Cc1coc2ccccc12)B(O)O)[C@H]1C[C@H]2CC[C@@H]1O2 | – | – | – | 140 nM | > 30000 nM | > 210 | – | – | – |
| O=C(Cc1ccccc1)N[C@@H](Cc1ccccc1)B(O)O | 643 nM | 9560 nM | 15 | 160 nM | 16000 nM | 99 | – | – | – |
| O=C(Cc1ccncc1)N[C@@H](Cc1coc2ccccc12)B(O)O | 71 nM | 2540 nM | 36 | 11 nM | 2300 nM | 222 | – | – | – |
| O=C(Cc1ccccc1)N[C@@H](Cc1ccc(Cl)cc1)B(O)O | 983 nM | 8750 nM | 8.9 | 38 nM | 5600 nM | 148 | – | – | – |
| Cc1c(Cl)ccc2c(C[C@H](NC(=O)Cc3ccccc3)B(O)O)coc12 | 164 nM | 7320 nM | 44 | 6.4 nM | 1700 nM | 272 | – | – | – |
| O=C(Cc1cccnc1)N[C@@H](Cc1coc2ccccc12)B(O)O | 24.7 nM | 646 nM | 26 | 2.3 nM | 540 nM | 232 | – | – | – |
| COCC(=O)N[C@@H](Cc1coc2ccccc12)B(O)O | 26.7 nM | 520 nM | 20 | 6 nM | 820 nM | 137 | – | – | – |
| COc1cccc2c(C[C@H](NC(=O)Cc3ccccc3)B(O)O)coc12 | 8.9 nM | 222 nM | 24 | 2.2 nM | 140 nM | 63 | – | – | – |
| O=C(Cc1ccccc1)N[C@@H](Cc1cc2ccccc2o1)B(O)O | 824 nM | 10100 nM | 12 | 29 nM | 5000 nM | 172 | – | – | – |
| N#Cc1ccccc1CC(=O)N[C@@H](Cc1coc2ccccc12)B(O)O | 42 nM | 2220 nM | 52 | 5.2 nM | 1700 nM | 334 | – | – | – |
| O=C(N[C@@H](Cc1coc2ccccc12)B(O)O)[C@@H]1CCOC1 | 13.7 nM | 1690 nM | 123 | 10 nM | 4300 nM | 410 | 19 µL/min/mg | 26.7 µL/min/1e6 cells | 1.85 |
| O=C(Cc1ccccc1)N[C@@H](Cc1c(Cl)oc2ccccc12)B(O)O | 824 nM | 16500 nM | – | 200 nM | 20000 nM | 104 | – | – | – |
| O=C(Cc1cnccn1)N[C@@H](Cc1coc2ccccc12)B(O)O | 18 nM | 328 nM | 18 | 1.9 nM | 410 nM | 212 | – | – | – |
| O=C(N[C@@H](Cc1coc2ccccc12)B(O)O)[C@H]1CCOC1 | 55 nM | 3000 nM | 54 | 28 nM | 5000 nM | 175 | 16 µL/min/mg | – | 2.1 |

| Compound | IC50 [1] | IC50 [2] | Ratio IC50 [3] | IC50 [4] | IC50 [5] | Ratio IC50 [6] | microsomal CLint [7] | hepatocyte CLint [8] | logP [9] |
| --- | --- | --- | --- | --- | --- | --- | --- | --- | --- |
| COCCC(=O)N[C@@H](Cc1coc2ccccc12)B(O)O | 10.6 nM | 241 nM | 23 | 1.9 nM | 400 nM | 205 | – | – | – |
| CC(C)C[C@H](NC(=O)Cc1ccccc1)B(O)O | 3300 nM | 7000 nM | 2.1 | 1000 nM | 15000 nM | 15 | – | – | – |
| Cc1cccc2c(C[C@H](NC(=O)Cc3ccccc3)B(O)O)coc12 | 29 nM | 2100 nM | 71 | 4.5 nM | 1200 nM | 276 | – | – | – |
| O=C(N[C@@H](Cc1coc2ccccc12)B(O)O)[C@@H]1C[C@@H]2CC[C@H]1O2 | – | – | – | 89 nM | 15000 nM | 173 | – | – | – |
| Cc1ccc(C[C@H](NC(=O)Cc2ccccc2)B(O)O)cc1C | 434 nM | 24500 nM | 56 | 85 nM | 15000 nM | 182 | – | – | – |
| O=C(Cc1ccccc1)N[C@@H](Cc1coc2c(Cl)cccc12)B(O)O | 41.5 nM | 2060 nM | 49 | 4.1 nM | 860 nM | 210 | – | – | – |
| Cc1ccc(C[C@@H](NC(=O)Cc2ccccc2)B(O)O)cc1C | 1410 nM | 5900 nM | 4.2 | 1200 nM | > 30000 nM | > 25 | – | – | – |
| O=C(N[C@@H](Cc1coc2ccccc12)B(O)O)[C@H]1CCCO1 | 40 nM | 817 nM | 20 | 5.9 nM | 930 nM | 158 | 48 µL/min/mg | 90.7 µL/min/1e6 cells | 2.1 |
| O=C(Cc1ccccc1)N[C@@H](Cc1coc2c(F)cccc12)B(O)O | 22.8 nM | 785 nM | 34 | 3.1 nM | 530 nM | 168 | – | – | – |
| N#Cc1ccccc1CC(=O)N[C@@H](C[C@@H]1COc2c(Cl)cccc21)B(O)O | 51 nM | 20900 nM | 406 | 2.9 nM | 7400 nM | 2570 | – | – | – |
| O=C(Cc1ccccc1)N[C@@H](C[C@@H]1COc2c(Cl)cccc21)B(O)O | 25 nM | 6100 nM | 243 | 1.8 nM | 2900 nM | 1620 | – | – | – |
| O=C(N[C@@H](Cc1coc2ccccc12)B(O)O)[C@@H]1CCCO1 | 400 nM | 15000 nM | 38 | 190 nM | 24000 nM | 128 | 34 µL/min/mg | 99.7 µL/min/1e6 cells | 1.9 |
| O=C(Cn1cccn1)N[C@@H](Cc1coc2ccccc12)B(O)O | 31 nM | 894 nM | 29 | 3.7 nM | 770 nM | 212 | – | – | – |
| CC(=O)N[C@@H](Cc1coc2ccccc12)B(O)O | 27.1 nM | 420 nM | 16 | 18 nM | 1400 nM | 70 | – | – | – |
| Cc1ccc(C[C@H](NC(=O)Cc2ccccc2)B(O)O)c(C)c1 | 896 nM | > 30000 nM | > 33 | 130 nM | 26000 nM | 194 | – | – | – |
| O=C(Cc1ccccc1)N[C@@H](C[C@H]1COc2c(Cl)cccc21)B(O)O | 9670 nM | > 30000 nM | – | 610 nM | > 30000 nM | > 49 | – | – | – |
| Cc1cccc2c1OC[C@H]2C[C@H](NC(=O)Cc1ccccc1C#N)B(O)O | 60 nM | > 30000 nM | > 496 | 4.4 nM | 14000 nM | 3150 | – | – | – |
